Assay [1] deals with cIAP2-BIR3 (Homo sapiens (Human), UniProt Q13489). Put plainly: BIR binding assay (FRET competition), cIAP2 BIR3. As to the method:
(§1) The BIR domain binding assays are FRET based competition assays that utilize His-tagged versions of each of the BIR2 and BIR3 domains from cIAP1, cIAP2, and XIAP (each domain assayed separately) each at a custom optimal concentration and a probe, 200 nM SMAC/DIABLO peptide […] labelled with AlexaFluor647 (part #crb 1110326h, Discovery Peptides). The assay is conducted in 50 mM HEPES, […], 1 mM CHAPS, 5% Glycerol, 1 mM DTT, in dI water with a final pH of 7.4 and final volume of 20 uL. Final protein domain concentrations are: 50 nM cIAP1-BIR3 (Part #APT-11-370 Reaction Biology), 100 nM XIAP-BIR3 (Part #APT-11-351 Reaction Biology), 200 nM XIAP-BIR2 (Part #APT-11-470 Reaction Biology), 325 nM cIAP2-BIR2 (Part #APT-11-489 Reaction Biology), 50 nM cIAP2-BIR3 (Part #APT-11-372 Reaction Biology), 325 nM cIAP1-BIR2 (Part #APT-11-487 Reaction Biology). Compounds were plated using a HP Tecan D300 printer in a final total volume of 202 nl and DMSO concentration normalized across the 15-point, 3-fold dilution series. Peptide and probe were prepared at 2× relative to the concentrations above in binding buffer, 10 uL added to the prepared compound plates, and incubated for 60 minutes. LANCE Eu-W1024 (part #AD0401 Perkin Elmer #, vendor) was prepared at 2× concentration in binding buffer for final concentration of 2 nM, 10 uL added to each well, and plates incubated for 30 minutes. Plates were read on an ENVISION multifunction plate reader with […] laser excitation to obtain the 615 nm/665 nm emission ratio as indicative of probe:protein proximity. Data was analyzed using GraphPad PRISM and curves fit using log(inhibitor) vs. response—Variable slope (four […] method to obtain IC50 and pIC50 values.

Assay [2] concerns the target XIAP-BIR3 (Homo sapiens (Human), UniProt P98170). In words: BIR binding assay (FRET competition), XIAP BIR3. As to the method: as §1
In assay [3] the test system is Jurkat HIV-luciferase clones. Put plainly: Jurkat latency reversal assay. The class given is cell-based. The conditions noted are these: Homo sapiens, 48 h; Jurkat latency reversal assay potency; read-out: Jurkat pEC50 (converted). The procedure: Jurkat HIV-luciferase clones were maintained in RPMI medium 1640 (Gibco by Life Technologies) containing 10% (vol/vol) fetal bovine serum (SAFC/Sigma-Aldrich) and 25 units/mL penicillin, 25 units/mL streptomycin (Gibco by Life Technologies), and were split 1:4 every 3 to 4 days to maintain a cell density of ˜0.3 to 1 million cells/mL. The Jurkat clones were maintained with the addition of 500 nM EFV in the medium. Three Jurkat cell clones (C16, 115, and N6), each harboring one or two integrated HIV proviruses expressing the luciferase reporter gene, were added at equal amounts for a total of 5,000 cells per well to 384-well plates containing compound titrations. Dose-response testing was performed on compounds dissolved in dimethyl sulfoxide (DMSO; Fisher Scientific, Merelbeke, Belgium) dispensed in duplicate serial 3-fold, 14-point titrations using a D300e Digital Droplet Dispenser (Hewlett-Packard) to give final assay concentrations of 10 μM to […] in 50 μL of medium at 0.5% DMSO (vol/vol) final concentration. Cells and compound were incubated at 37° C. for 48 hours, unless otherwise indicated, followed by the addition of 20 μL of Steady-Glo® Luciferase (Promega). Luminescence resulting from the induction of the virally expressed luciferase was measured using an EnVision 2102 Multilabel Plate Reader (Perkin Elmer). Dose-response relationships were analyzed with GraphPad PRISM 6 using a four-parameter logistic regression model to calculate the concentration of compound that gives half-maximal response (EC50) and the maximal percent activation compared to the vehicle control.

The target of assay [4] is cIAP1-BIR3 (Homo sapiens (Human), UniProt Q13490). Put plainly: BIR binding assay (FRET competition), cIAP1 BIR3. As to the method:
as §1

Sequence of XIAP-BIR3 (P98170 241-356): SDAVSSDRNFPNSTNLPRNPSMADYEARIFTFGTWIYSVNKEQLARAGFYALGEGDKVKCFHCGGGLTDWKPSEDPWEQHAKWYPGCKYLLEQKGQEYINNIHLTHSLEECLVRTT
Sequence of cIAP2-BIR3 (Q13489 238-349): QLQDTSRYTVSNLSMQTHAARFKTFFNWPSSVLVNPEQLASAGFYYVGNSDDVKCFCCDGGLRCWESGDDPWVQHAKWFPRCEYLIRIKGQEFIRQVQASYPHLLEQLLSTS
Sequence of cIAP1-BIR3 (Q13490 253-363): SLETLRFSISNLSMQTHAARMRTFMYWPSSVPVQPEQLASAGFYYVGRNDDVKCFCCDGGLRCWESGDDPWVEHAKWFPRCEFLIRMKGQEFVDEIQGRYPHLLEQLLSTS

In the case of `C[C@@H]1CN(CC(=O)N2CC(C)(C)c3[nH]c(=O)c(Cc4ccc(F)cc4)cc32)[C@@H](CN2CCO[C@H](COc3ccc(S(=O)(=O)c4ccc(OC[C@@H]5CN(C[C@H]6CN[C@H](C)CN6CC(=O)N6CC(C)(C)c7[nH]c(=O)c(Cc8ccc(F)cc8)cc76)CCO5)cc4)cc3)C2)CN1` [Example 57, 1,1′-(2,2′-((3R,3′R,6R,6′R)-(((2S,2'S)-(((sulfonylbis(4,1-phenylene))bis(oxy))bis(methylene))bis(morpholine-2,4-diyl))bis(methylene))bis(3-methylpiperazine-6,1-diyl))bis(acetyl))bis(6-(4-fluorobenzyl)-3,3-dimethyl-1,2,3,4-tetrahydro-5H-pyrrolo[3,2-b]pyridin-5-one)], the values for the IC50 in assay [1], in assay [2] and in assay [4] were 15.8 to 31.6 nM, 31.6 to 501 nM and 31.6 to 501 nM, respectively. The EC50 in assay [3] was 12.6 to 63.1 nM.

With `C[C@@H]1CN(CC(=O)N2CC(C)(C)c3[nH]c(=O)c(Cc4ccc(F)cc4)cc32)[C@@H](CN2CCO[C@H](COc3ccc(-c4ccc(OC[C@@H]5CN(C[C@H]6CN[C@H](C)CN6CC(=O)N6CC(C)(C)c7[nH]c(=O)c(Cc8ccc(F)cc8)cc76)CCO5)cc4)cc3)C2)CN1` [Example 50, 1,1′-(2,2′-((3R,3′R,6R,6′R)-(((2S,2'S)—(([1,1′-biphenyl]-4,4′-diylbis(oxy))bis(methylene))bis(morpholine-2,4-diyl))bis(methylene))bis(3-methylpiperazine-6,1-diyl))bis(acetyl))bis(6-(4-fluorobenzyl)-3,3-dimethyl-1,2,3,4-tetrahydro-5H-pyrrolo[3,2-b]pyridin-5-one)], the IC50 in assay [1], in assay [2] and in assay [4] was 1.38 to 7.94 nM throughout. For the same compound, the EC50 in assay [3] is 0.49 to 12.6 nM.

Take `C[C@@H]1CN(CC(=O)N2CC(C)(C)c3[nH]c(=O)c(Cc4ccc(Cl)cc4Cl)cc32)[C@@H](CN2CCO[C@H](COc3cccc(OC[C@@H]4CN(C[C@H]5CN[C@H](C)CN5CC(=O)N5CC(C)(C)c6[nH]c(=O)c(Cc7ccc(Cl)cc7Cl)cc65)CCO4)c3)C2)CN1` [Compound 187]: the values for the IC50 in assay [1], in assay [2] and in assay [4] were 7.94 to 15.8 nM, 31.6 to 501 nM and 7.94 to 15.8 nM, respectively. Besides, the EC50 in assay [3] is 0.49 to 12.6 nM.

As to `C[C@@H]1CN(CC(=O)N2CC(C)(C)c3[nH]c(=O)c(Cc4ccc(F)cc4)cc32)[C@@H](CN2CCO[C@H](COc3ccc(C(C)(C)c4ccc(C(C)(C)c5ccc(OC[C@@H]6CN(C[C@H]7CN[C@H](C)CN7CC(=O)N7CC(C)(C)c8[nH]c(=O)c(Cc9ccc(F)cc9)cc87)CCO6)cc5)cc4)cc3)C2)CN1` [Example 62, 1,1′-(2,2′-((3R,3′R,6R,6′R)-(((2S,2'S)-((((1,4-phenylenebis(propane-2,2-diyl))bis(4,1-phenylene))bis(oxy))bis(methylene))bis(morpholine-2,4-diyl))bis(methylene))bis(3-methylpiperazine-6,1-diyl))bis(acetyl))bis(6-(4-fluorobenzyl)-3,3-dimethyl-1,2,3,4-tetrahydro-5H-pyrrolo[3,2-b]pyridin-5-one)], the IC50 in assay [1], in assay [2] and in assay [4] was 31.6 to 501 nM each time. For the same compound, in assay [3], the EC50 is 12.6 to 63.1 nM.

As for `C[C@@H]1CN(CC(=O)N2CC(C)(C)c3[nH]c(=O)c(Cc4ccc(F)cc4)cc32)[C@@H](CN2CCC(CCCOc3cccc(OCCCC4CCN(C[C@H]5CN[C@H](C)CN5CC(=O)N5CC(C)(C)c6[nH]c(=O)c(Cc7ccc(F)cc7)cc65)CC4)c3)CC2)CN1` [Example 109, 1,1′-(2,2′-((3R,3′R,6R,6′R)-((((1,3-phenylenebis(oxy))bis(propane-3,1-diyl))bis(piperidine-4,1-diyl))bis(methylene))bis(3-methylpiperazine-6,1-diyl))bis(acetyl))bis(6-(4-fluorobenzyl)-3,3-dimethyl-1,2,3,4-tetrahydro-5H-pyrrolo[3,2-b]pyridin-5-one)], the IC50 (usually the concentration that gives 50% inhibition) in assay [1] is 7.94 to 15.8 nM; in assay [4], 15.8 to 31.6 nM. The EC50 in assay [3] was 12.6 to 63.1 nM.

The record behind these values is patent US20250326771A1, “PIPERAZINE DERIVATIVES USEFUL IN HIV THERAPY” (VIIV HEALTHCARE COMPANY, priority 2022, published 2025).
